For one data set, the system named is H661. In words: MTT viability assay, H661. The format is cell-based, human. Particulars: mean ± span, 48 h treatment, cell line without KRAS mutation. The method, then:
(§1) NSCLC cell lines were obtained from the Hamon Center for Therapeutic Oncology Research (UT Southwestern Medical Center). IMR-90 human lung fibroblasts were from ATCC (CC-186). All cell lines were maintained and treated in RPMI medium (Cytiva (Shanghai, China), #SH30027), supplemented with 10% heat-inactivated FBS (Millipore Sigma (Darmstadt, Germany), F0394).
(§2) 5000–10,000 cells/0.1 mL/well were seeded in 96-well plates to achieve 70% confluence after 24 h. All drug stock solutions were prepared fresh in DMSO at a concentration of 10 mM. The day after cell plating, we added 0.1 mL of medium containing the appropriate drug dilutions. After 48 h of treatment, 10 μL of MTT solution (5 mg/mL) was added to each well. After 4 h incubation, the medium was aspirated, and the formazan salts dissolved in 200 μL DMSO/well for 10 min at 37 °C. The absorbance was read at 570 nm (OD 570 nm). Data are represented as mean ± SD of two independent experiments.
(§3) Statistical and data analysis was performed using GraphPad Prism (v10). IC50 values were calculated using a three-parameter non-linear regression model with log(inhibitor) vs. response. For the TxrR activity statistics, the groups were compared using a two-way ANOVA followed by Dunnett’s multiple comparisons with alpha = 0.05. The correlation between IC50 values and TxrR activity was achieved using Pearson correlation with alpha = 0.05.
In general terms: Formazan colour is commonly taken as a measure of viable cells.

A further data set relates to H1355. The experiment in a line: MTT viability assay, H1355. The following applies: mean ± span, 48 h treatment, cell line with KRAS mutation. The format is cell-based, human. The method, then: as §1, §2, §3
The subject of data set [1] is human NSCLC cell lines with KRAS mutations. The experiment in a line: MTT assay, average across NSCLC cell lines with KRAS mutations. The format is cell-based. Particulars: 48 h, read-out: IC50 * averaged values. The method, then:
as §1, §2, §3

A further data set concerns H1395. The experiment in a line: MTT viability assay, H1395. The format is cell-based, human. Particulars: mean ± span, 48 h treatment, cell line without KRAS mutation. The method, then: as §1, §2, §3
The test system of the next data set is H460. The experiment in a line: MTT viability assay, H460. The following applies: mean ± span, 48 h treatment, cell line with KRAS mutation. The format is cell-based, human. The method, then:
as §1, §2, §3

Data set [2] can be described thus: Solution stability by UV-visible spectra over time. The class given is physicochemical. The following applies: UV-visible spectra over time; DMSO, methanol, PBS buffered solutions. The method, then: Stability studies were led by acquiring UV−visible spectra of 100 µM DMSO or methanol solutions of compounds 1∓8 over time (Figures S19–S29 in Supplementary Materials). […] The stability of NHC-AuX3 complexes (with X = Cl, compounds 1 and 2, with X = Br, compounds 5 and 6) was affected by the nature of both the substituents on the imidazolyl ligand and of the halide, showing a small decrease of the UV bands maxima in an hour. By analyzing the spectral data of compounds 1 and 2, a percent concentration reduction of about 4–5% was estimated within an hour, grading them eligible for biological tests. The partial instability may be attributed to the formation of cationic bis-carbeneAuCl2 species (Equation (1)), with the [bis-carbeneAuX2]^+ and the respective AuX2^−; these ions were actually detected as positive and negative ions in the ESI-MS spectra (see Figures S12 and S13). […] Additionally, the (+)ESI MS spectrum of the acetonitrile solution of compound 6 is particularly rich in positive ions (Figure S16). As concerns the mono-/bis-carbene formation, it is likely initiated by the large trans effect of the carbene ligands, which induces the chemical lability on the trans halide, triggers […], the formation of bis-carbeneAu(III) species, and AuX2^− or AuX4^− anions:2[NHC-AuX3] ⇔ [[(NHC)2AuX2] [AuX2^−] + 2X(1) […]
The stability of the samples 1-8 in DMSO solution was assayed by UV-visible spectroscopy. Spectra were acquired using the Shimadzu UV-2700i spectrophotometer, equipped with the Shimadzu CPS-100 Peltier, at 293 K. Unless diversely specified, 100 µM DMSO solutions of the 1-8 compounds were prepared and spectra were acquired each 10 minutes for a total of 60 minutes. The spectra obtained are reported as following.
Figure S19. UV-Visible Spectra acquired for complex 1.
Figure S20. UV-Visible Spectra acquired for complex 2. […]

In data set [3] the test system is TrxR in H522 cell lysates. In words: Thioredoxin reductase activity in lysates of treated H522 cells. The following applies: for Mean Diff. TrxR activity vs. veh: H522 lysate, 24 h treatment at 5 μM. The class given is cell-based, human. The method, then: The enzymatic activity of TrxR in the A549 and H522 cell lysates was measured using the TrxR assay Kit (Abcam ab83463) following the manufacturer’s instructions. This kit is based on the TxrR-mediated reduction of the colorless DTNB into TNB2—(yellow). Briefly, cells were plated to reach 70% confluence on a 100-mm dish in one day. They were treated with 5 μM of the gold compounds or the equivalent quantity of DMSO for 24 h. Then, cells were washed in PBS 1X, detached, and lysed in 100 μL of cold TrxR assay buffer supplemented with the Proteinase Inhibitor Cocktail. 20 μg and 40 μg of total proteins were used for the A549 and the H522, respectively. The DTNB substrate was added to samples with or without TrxR inhibitor (provided with the kit) in 96-well plates. The OD412 was measured soon after the substrate addition (A1) and then after 25, 60, 90, and 110 min (An) at 25 °C using a FLUOstar Omega Microplate Reader (BGM Labtech, Chicago, IL, USA). Data analysis was performed following the manufacturer’s instructions. The OD of TNB2, generated by TrxR in every condition, is:ΔA412 nm = (AnAB − AnINH) − (AB − A1INH) where AB is the assay buffer, and INH is the inhibitor. The TrxR activity is:(2) ΔB/Tn−T1×mg of protein lysate×sample dilution factor=(nmol/min)/mg=mU/mg where ΔB is the TNB amount calculated applying ΔA412 nm to TNB standard curve (in nmol), T1 is the time of the first reading (A1AB, and A1INH) (in min), Tn is the time of the second reading (AnAB and AnINH) (in min). The residual TxrR activity (%) was calculated by normalizing the TxrR activity for each compound with the matching vehicle values at every n time point.
as §3

Another data set concerns H1792. The experiment in a line: MTT viability assay, H1792. The class given is cell-based, human. Particulars: mean ± span, 48 h treatment, cell line with KRAS mutation. The method, then: as §1, §2, §3

Structures are written as SMILES.

In the case of `Cn1cc[n+](C)[c]1[Au-2]([Cl])[P+](c1ccccc1)(c1ccccc1)c1ccccc1` [Compound 8], the half-maximal inhibitory concentration (IC50) – broadly, the concentration needed to halve the response being measured – in the data set on H661 amounted to 1.1 ± 1.1 µM; in the data set on H1355 it was 6.4 ± 0.65 µM; in data set [1], 11 µM; in the data set on H1395 it was 5.9 ± 0.97 µM; with H460 it was 13 ± 1.4 µM; in the data set with H1792, 15 ± 1.1 µM. The “stability in solution” value in data set [2] is “highest stability in solution”. The “TrxR activity reduction / inhibition” value in data set [3] (H522, 24 h treatment, stated for both cell lines) is listed as “more than 80%”. Further, the “Mean Diff. TrxR activity vs. veh” value in data set [3] (reading at 25 min) was −81.92%; in data set [3] (reading at 60 min), −82.1%; in data set [3] (reading at 90 min), −91.89%; in data set [3] (reading at 110 min) it was −88.27%.

Consider `Clc1n[c]([Au-][P+](c2ccccc2)(c2ccccc2)c2ccccc2)n(Cc2ccccc2)c1Cl` [Compound 7], for which the concentration for half-maximal inhibition (IC50) in the data set with H661 was 0.95 ± 1 µM; with H1355, 7.8 ± 0.61 µM; in data set [1], 10 µM; with H1395, 6.3 ± 0.98 µM; in the data set on H460, 6.6 ± 1.02 µM; in the data set with H1792, 12 ± 1.04 µM. The “stability in solution” value in data set [2] is “highest stability in solution”. Moreover, the “Mean Diff. TrxR activity vs. veh” value in data set [3] (reading at 25 min) is reported as −57.19%; in data set [3] (reading at 60 min), −91.41%; in data set [3] (reading at 90 min) it was −90.61%; in data set [3] (reading at 110 min), −89.86%.

The record behind these values is publication PMC11435220, “Anticancer Activity of Imidazolyl Gold(I/III) Compounds in Non-Small Cell Lung Cancer Cell Lines” (Pharmaceuticals, 2024).
